The subject of this test is HOP-62 complex spheroids with HUVEC/MSC, viability. In words: Anticancer human tumor HOP-62 cell line growth inhibition [RAS].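 For all read-outs here: spheroids exposed to agents for seven days before readout.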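 For viability, T/C: 100% = DMSO vehicle control viability.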 The note with it: for viability, T/C: stronger effect = lower value. In short, it runs like this: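 Multi-cell-type spheroids: tumor cells plus HUVEC endothelial cells and mesenchymal stem cells. RAS-pathway inhibitors were combined with targeted agents, each dosed in half-log steps down from clinical Cmax, or from 10 microM when Cmax was unknown.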

“And” between values parts separate entries of the source, which are not always exact repeats. Equal entries are not always repeated.

Usually IC50 stands for the point on the concentration scale where inhibition reaches its midpoint. For orientation: viability, T/C means the result in the treated group divided by that in the control group, in per cent.

As for `CC1(O)CCCC1n1c(=O)c(C(F)F)cc2cnc(NC3CCN(S(C)(=O)=O)CC3)nc21` (centres undefined) + C#Cc1c(F)ccc2cc(O)cc(-c3ncc4c(N5CC6CCC(C5)N6)nc(OCC56CCCN5CC(F)C6)nc4c3F)c12, the concentration for half-maximal inhibition (IC50) by setting is: (curve of first compound, second compound 0.0316 µM) 0.383 µM; (curve of first compound, second compound 0.1 µM) 0.398 µM; (curve of first compound, second compound 0.316 µM) 0.343 µM; (curve of first compound, second compound 1 µM) 0.324 µM; (curve of first compound, second compound 3.16 µM) 0.146 µM; (curve of first compound, second compound 10 µM) less than 0.0316 µM. For the same molecule, the viability, T/C runs as follows: (second compound 0.0316 µM, first compound 0.0316 µM) 87.9%; (second compound 0.0316 µM, first compound 0.1 µM) 53.1%; (second compound 0.0316 µM, first compound 0.316 µM) 43.3%; (second compound 0.0316 µM, first compound 1 µM) 40.5%; (second compound 0.0316 µM, first compound 3.16 µM) 47.8%; (second compound 0.0316 µM, first compound 10 µM) 0.9%. Also, the viability, T/C is, setting by setting: (second compound 0.1 µM, first compound 0.0316 µM) 91.3%; (second compound 0.1 µM, first compound 0.1 µM) 52.2%; (second compound 0.1 µM, first compound 0.316 µM) 45.3%; (second compound 0.1 µM, first compound 1 µM) 48.8%; (second compound 0.1 µM, first compound 3.16 µM) 35.7%; (second compound 0.1 µM, first compound 10 µM) 1.45%. Moreover, the viability, T/C (second compound 0.316 µM, first compound 0.0316 µM) is 91.4%; the viability, T/C (second compound 0.316 µM, first compound 0.1 µM) was 50.7%; the viability, T/C (second compound 0.316 µM, first compound 0.316 µM) was 38%; the viability, T/C (second compound 0.316 µM, first compound 1 µM) is 42%; the viability, T/C (second compound 0.316 µM, first compound 3.16 µM) was 42.2%; the viability, T/C (second compound 0.316 µM, first compound 10 µM) is 1.44%. In addition, the viability, T/C was 84.7% (second compound 1 µM, first compound 0.0316 µM); 53.6% (second compound 1 µM, first compound 0.1 µM); 37.2% (second compound 1 µM, first compound 0.316 µM); 45.2% (second compound 1 µM, first compound 1 µM); 40% (second compound 1 µM, first compound 3.16 µM); 3.73% (second compound 1 µM, first compound 10 µM). Besides, the viability, T/C was 66.6% (second compound 3.16 µM, first compound 0.0316 µM); 47.9% (second compound 3.16 µM, first compound 0.1 µM); 34% (second compound 3.16 µM, first compound 0.316 µM); 41.4% (second compound 3.16 µM, first compound 1 µM); 27.6% (second compound 3.16 µM, first compound 3.16 µM); 1.45% (second compound 3.16 µM, first compound 10 µM). For the same molecule, the viability, T/C (second compound 10 µM, first compound 0.0316 µM) is 42%; the viability, T/C (second compound 10 µM, first compound 0.1 µM) is 37.3%; the viability, T/C (second compound 10 µM, first compound 0.316 µM) is 27.8%; the viability, T/C (second compound 10 µM, first compound 1 µM) was 29.4%; the viability, T/C (second compound 10 µM, first compound 3.16 µM) is 32.5%; the viability, T/C (second compound 10 µM, first compound 10 µM) is 1.15%.

As to `C[C@@H](NC(=O)c1ncnc(N)c1Cl)c1ncc(C(=O)Nc2cc(C(F)(F)F)c(Cl)cn2)s1`, the viability, T/C runs as follows: (compound 0.0316 µM) 102% (2×) and 107% and 101%; (compound 0.1 µM) 98.6% [middle of 4 runs]; (compound 0.316 µM) 105% and 98.1% and 104% (2×); (compound 1 µM) 104% [middle of 4 runs]; (compound 3.16 µM) 96% [middle of 4 runs]. The half-inhibitory concentration (IC50) (curve of compound) was greater than 10 µM.

With `Nc1ccn(C2OC(CO)C(O)C2(F)F)c(=O)n1` (centres undefined) + CCn1c(-c2cc(N3CCN(C)CC3)cnc2C(C)OC)c2c3cc(ccc31)-c1csc(n1)CC(NC(=O)C1CC1C)C(=O)N1CCCC(N1)C(=O)OCC(C)(C)C2, the IC50 runs as follows: (curve of first compound, second compound 0.000949 µM) 0.0157 µM; (curve of first compound, second compound 0.003 µM) 0.0129 µM; (curve of first compound, second compound 0.00949 µM) 0.012 µM; (curve of first compound, second compound 0.03 µM) 0.0106 µM; (curve of first compound, second compound 0.0949 µM) less than 0.00316 µM; (curve of first compound, second compound 0.3 µM) less than 0.00316 µM. Further, the viability, T/C (second compound 0.000949 µM, first compound 0.00316 µM) is 121%; the viability, T/C (second compound 0.000949 µM, first compound 0.01 µM) was 71.2%; the viability, T/C (second compound 0.000949 µM, first compound 0.0316 µM) was 16.9%; the viability, T/C (second compound 0.000949 µM, first compound 0.1 µM) was 12.5%; the viability, T/C (second compound 0.000949 µM, first compound 0.316 µM) is 9.82%; the viability, T/C (second compound 0.000949 µM, first compound 1 µM) is 5.86%. Moreover, the viability, T/C is 93.9% (second compound 0.003 µM, first compound 0.00316 µM); 56% (second compound 0.003 µM, first compound 0.01 µM); 29.5% (second compound 0.003 µM, first compound 0.0316 µM); 19.4% (second compound 0.003 µM, first compound 0.1 µM); 14.9% (second compound 0.003 µM, first compound 0.316 µM); 8.45% (second compound 0.003 µM, first compound 1 µM). The viability, T/C reads like this: (second compound 0.00949 µM, first compound 0.00316 µM) 68.1%; (second compound 0.00949 µM, first compound 0.01 µM) 52.5%; (second compound 0.00949 µM, first compound 0.0316 µM) 36.2%; (second compound 0.00949 µM, first compound 0.1 µM) 26.6%; (second compound 0.00949 µM, first compound 0.316 µM) 17.5%; (second compound 0.00949 µM, first compound 1 µM) 17.3%. Moreover, the viability, T/C (second compound 0.03 µM, first compound 0.00316 µM) is 60.4%; the viability, T/C (second compound 0.03 µM, first compound 0.01 µM) was 49.2%; the viability, T/C (second compound 0.03 µM, first compound 0.0316 µM) was 40.3%; the viability, T/C (second compound 0.03 µM, first compound 0.1 µM) is 31%; the viability, T/C (second compound 0.03 µM, first compound 0.316 µM) is 20.8%; the viability, T/C (second compound 0.03 µM, first compound 1 µM) is 25.1%. In addition, the viability, T/C reads like this: (second compound 0.0949 µM, first compound 0.00316 µM) 45.6%; (second compound 0.0949 µM, first compound 0.01 µM) 38.4%; (second compound 0.0949 µM, first compound 0.0316 µM) 35.6%; (second compound 0.0949 µM, first compound 0.1 µM) 28.9%; (second compound 0.0949 µM, first compound 0.316 µM) 23.9%; (second compound 0.0949 µM, first compound 1 µM) 27.4%. Besides, the viability, T/C was 43.5% (second compound 0.3 µM, first compound 0.00316 µM); 38.8% (second compound 0.3 µM, first compound 0.01 µM); 39.7% (second compound 0.3 µM, first compound 0.0316 µM); 25.9% (second compound 0.3 µM, first compound 0.1 µM); 25.9% (second compound 0.3 µM, first compound 0.316 µM); 31.7% (second compound 0.3 µM, first compound 1 µM).

As to `CC(C)n1nc(-c2ccc3oc(N)nc3c2)c2c(N)ncnc21`, the viability, T/C runs as follows: (compound 0.000316 µM) 105% [middle of 4 runs]; (compound 0.001 µM) 97.4% [middle of 4 runs]; (compound 0.00316 µM) 93.7% [middle of 4 runs]; (compound 0.01 µM) 98.7% and 65.8% and 66.1%.
